The values that follow come from ChEMBL document CHEMBL1144956, “Chemical synthesis and cytotoxicity of dihydroxylated cyclopentenone analogues of neocarzinostatin chromophore” (Bioorg Med Chem Lett, 2003).

Format in all cases: functional, cell-based
One assay has as its system K562. Put plainly: In vitro cytotoxic activity against human leukemic cell line K562 after incubation for 1 hour. As to conditions: K562, 1 h.
The test system of assay [1] is A2780. Put plainly: In vitro cytotoxic activity against human tumor cell line A2780CisR after incubation for 96 hours. As to conditions: A2780, 96 h.
The test system of assay [2] is A2780. The assay is described as follows: In vitro cytotoxic activity against human tumor cell line A2780 after incubation for 96 hours. As to conditions: A2780, 96 h.
In the next assay the test system is SK-OV-3. Put plainly: In vitro cytotoxic activity against human tumor cell line SKOV-3 after incubation for 96 hours. The settings on record: SK-OV-3, 96 h.
The next assay has as its system CH1. Put plainly: In vitro cytotoxic activity against human tumor cell line CH1 after incubation for 96 hours. The settings on record: CH1, 96 h.
The next assay has as its system HT-29. Put plainly: In vitro cytotoxic activity against human tumor cell line HT-29 after incubation for 96 hours. As to conditions: HT-29, 96 h.

By IC50 is commonly meant the concentration at which inhibition is half-maximal. Higher therefore signals a need for much substance. In the assay with K562, `COc1cc(C)c2ccc(O)c(C(=O)O[C@H]3[C@H](O)C=C[C@@H]3O)c2c1` had an IC50 above 100 µM.
Take `O=C(O[C@@H]1C=C[C@H](O)[C@H]1O)c1c(O)ccc2ccccc12`: in the assay on K562, the IC50 is above 100 µM.
As to `COc1cc(C)c2ccc(O)c(C(=O)O[C@@H]3C=CC(=O)[C@H]3O)c2c1`, the IC50 in the assay with A2780 [1] came out at 4 µM; with A2780 [2] it was 2.5 µM; in the assay on K562 it was 5 µM; in the assay with SK-OV-3 it was 2.5 µM; in the assay with CH1, 2.5 µM; in the assay on HT-29 it was 11 µM.
Consider `O=C(O[C@@H]1C(=O)C(Br)=C[C@H]1O)c1c(O)ccc2ccccc12`, for which the IC50 is 13 µM with A2780 [1]; 9.4 µM in the assay on A2780 [2]; 5 µM with K562; 9.4 µM in the assay with SK-OV-3; 11 µM in the assay on CH1; above 25 µM in the assay with HT-29.
On to `O=C(O[C@@H]1C=C(Br)C(=O)[C@H]1O)c1c(O)ccc2ccccc12`, for which the IC50 is 17.5 µM in the assay on A2780 [1]; 10 µM in the assay with A2780 [2]; 3.5 µM in the assay on K562; 11 µM with SK-OV-3; 11 µM in the assay on CH1; above 25 µM in the assay with HT-29.
On to `O=C(O[C@@H]1C=CC(=O)[C@H]1O)c1c(O)ccc2ccccc12`, for which the IC50 in the assay with A2780 [1] is 8.6 µM; in the assay with A2780 [2], 2.7 µM; in the assay on K562, 6 µM; in the assay with SK-OV-3, 2.3 µM; with CH1, 4 µM; with HT-29, 12 µM.
`COc1cc(C)c2ccc(O)c(C(=O)O[C@@H]3C(=O)C=C[C@H]3O)c2c1`: the IC50 is 9 µM in the assay with A2780 [1]; 9.4 µM in the assay with A2780 [2]; 4.5 µM with K562; 7.2 µM with SK-OV-3; 11 µM with CH1; 13 µM in the assay on HT-29.
`COc1cc(C)c2ccc(O)c(C(=O)O[C@@H]3C=C[C@H](O)[C@H]3O)c2c1`: the IC50 in the assay on K562 is above 100 µM.
As for `O=C(O[C@@H]1C(=O)C=C[C@H]1O)c1c(O)ccc2ccccc12`, the half-inhibitory concentration (IC50) with A2780 [1] came to 9.4 µM; in the assay on A2780 [2] it was 3.7 µM; with K562 it was 4 µM; in the assay on SK-OV-3 it was 3.1 µM; in the assay with CH1 it was 5.8 µM; in the assay with HT-29, 12 µM.
In turn, `O=C(O[C@H]1[C@H](O)C=C[C@@H]1O)c1c(O)ccc2ccccc12` came in with an IC50 in the assay on K562 above 100 µM.
